Values quoted from earlier work as cited in patent publication EP4613273A1, “TREATMENT OF BONE LOSS” (priority 2024, dated 2025).

Biological target: T1, cathepsin K (Homo sapiens, UniProt P43235)
T1 construct: host or cells: patients with postmenopausal osteoporosis (endogenous enzyme)
T1 sequence (P43235 115-329): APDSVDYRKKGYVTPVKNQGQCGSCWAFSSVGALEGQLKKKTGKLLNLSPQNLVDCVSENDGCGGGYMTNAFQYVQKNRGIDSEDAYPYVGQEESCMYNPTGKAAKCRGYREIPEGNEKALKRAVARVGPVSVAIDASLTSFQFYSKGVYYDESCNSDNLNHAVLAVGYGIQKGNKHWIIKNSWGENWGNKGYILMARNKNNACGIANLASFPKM
Details: cited from earlier work

SMILES: CC(C)(F)C[C@H](N[C@@H](c1ccc(-c2ccc(S(C)(=O)=O)cc2)cc1)C(F)(F)F)C(=O)NC1(C#N)CC1 [Odanacatib]
- adverse effects leading to termination of development: cardio-cerebrovascular adverse effects
